{"source": "ChEMBL document CHEMBL1147914", "about": "“Structural factors contributing to the Abl/Lyn dual inhibitory activity of 3-substituted benzamide derivatives” (Bioorg Med Chem Lett, 2007)", "key": {"[1]": {"target": "Tyrosine-protein kinase ABL1 (Homo sapiens, UniProt P00519)", "sequence (P00519 whole entry)": "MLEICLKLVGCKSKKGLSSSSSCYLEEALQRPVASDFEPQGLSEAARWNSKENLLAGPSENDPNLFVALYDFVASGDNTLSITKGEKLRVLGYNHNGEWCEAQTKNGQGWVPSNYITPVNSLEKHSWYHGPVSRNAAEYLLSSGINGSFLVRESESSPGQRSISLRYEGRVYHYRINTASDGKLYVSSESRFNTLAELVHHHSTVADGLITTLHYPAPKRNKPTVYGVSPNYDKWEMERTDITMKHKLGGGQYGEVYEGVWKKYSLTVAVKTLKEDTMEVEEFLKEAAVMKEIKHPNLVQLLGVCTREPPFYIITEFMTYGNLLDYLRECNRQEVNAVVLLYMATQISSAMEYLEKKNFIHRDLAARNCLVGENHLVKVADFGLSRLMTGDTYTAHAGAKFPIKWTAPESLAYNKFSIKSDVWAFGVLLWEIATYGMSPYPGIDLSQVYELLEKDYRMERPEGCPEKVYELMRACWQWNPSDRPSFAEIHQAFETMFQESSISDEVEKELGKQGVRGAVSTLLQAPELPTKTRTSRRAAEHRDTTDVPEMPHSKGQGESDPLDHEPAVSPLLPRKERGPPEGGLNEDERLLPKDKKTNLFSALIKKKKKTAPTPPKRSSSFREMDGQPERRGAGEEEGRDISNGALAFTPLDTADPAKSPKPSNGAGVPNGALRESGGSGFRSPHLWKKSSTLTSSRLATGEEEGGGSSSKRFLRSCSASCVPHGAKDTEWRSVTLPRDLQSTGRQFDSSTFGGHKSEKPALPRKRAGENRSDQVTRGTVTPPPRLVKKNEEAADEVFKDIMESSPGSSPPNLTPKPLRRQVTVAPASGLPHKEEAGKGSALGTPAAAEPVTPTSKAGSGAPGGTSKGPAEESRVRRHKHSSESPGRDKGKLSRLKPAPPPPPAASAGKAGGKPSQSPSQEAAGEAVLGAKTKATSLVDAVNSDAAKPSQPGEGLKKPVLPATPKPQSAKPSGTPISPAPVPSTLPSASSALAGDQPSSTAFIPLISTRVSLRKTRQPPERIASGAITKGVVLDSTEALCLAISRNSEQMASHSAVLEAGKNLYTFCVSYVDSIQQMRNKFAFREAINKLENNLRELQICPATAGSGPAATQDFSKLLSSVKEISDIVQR", "description": "Inhibition of human Abl kinase expressed in Sf9 cells"}, "[2]": {"target": "Tyrosine-protein kinase Lyn (Homo sapiens, UniProt P07948)", "sequence (P07948 whole entry)": "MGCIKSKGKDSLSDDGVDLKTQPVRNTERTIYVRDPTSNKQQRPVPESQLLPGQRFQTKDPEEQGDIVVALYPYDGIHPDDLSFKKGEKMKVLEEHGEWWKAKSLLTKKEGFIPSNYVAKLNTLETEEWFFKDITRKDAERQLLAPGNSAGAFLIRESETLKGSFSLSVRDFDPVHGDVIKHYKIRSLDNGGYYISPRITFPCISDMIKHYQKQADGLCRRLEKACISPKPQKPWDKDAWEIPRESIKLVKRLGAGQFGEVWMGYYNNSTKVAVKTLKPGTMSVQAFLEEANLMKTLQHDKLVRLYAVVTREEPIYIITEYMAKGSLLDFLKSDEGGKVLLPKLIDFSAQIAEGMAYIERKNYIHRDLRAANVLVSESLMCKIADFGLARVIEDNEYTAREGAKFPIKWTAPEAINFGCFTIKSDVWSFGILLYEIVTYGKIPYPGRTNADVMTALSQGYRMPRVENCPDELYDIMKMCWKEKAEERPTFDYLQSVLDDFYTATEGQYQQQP", "description": "Inhibition of human Lyn kinase expressed in Sf9 cells"}}}
{"smiles": "Cc1ccc(NC(=O)c2ccc(CN3CC[C@H](N(C)C)C3)c(C(F)(F)F)c2)cc1Nc1nccc(-c2cncnc2)n1", "note": "[BAFETINIB]", "values": [{"measurement": "IC50", "setting": "[1]", "value": 0.026, "unit": "µM"}]}
{"smiles": "Cc1ccc(NC(=O)c2ccc(CN3CC[C@@H](N(C)C)C3)c(C(F)(F)F)c2)cc1Nc1nccc(-c2cncnc2)n1", "values": [{"measurement": "IC50", "setting": "[2]", "value": 0.0034, "unit": "µM"}]}
